The values below come from ChEMBL document CHEMBL1124578, “A potent, tissue-selective, synthetic inhibitor of HMG-CoA reductase” (J Med Chem, 1989).

Molecules are shown by their SMILES.

A short description of experiment [1]: Ratio of the mean IC50 for sterol-synthesis inhibition of adrenal relative to hepatocytes in rat. In kind it is functional, Hepatocyte.
The nature of experiment [2]: Ratio of the mean IC50 for sterol-synthesis inhibition of hepatocytes relative to hepatocytes in rat. In kind it is functional, Hepatocyte.
Experiment [3] in a line: Ratio of the mean IC50 for sterol-synthesis inhibition of spleen relative to hepatocytes in rat. In kind it is functional, Hepatocyte.
Experiment [4] is described as follows: Ratio of the mean IC50 for sterol-synthesis inhibition of testes relative to hepatocytes in rat. In kind it is functional, Hepatocyte.
The subject of experiment [5] is HMG-CoA reductase (Rattus norvegicus). The experiment in a line: In vitro inhibition of rat liver microsomal HMG-CoA reductase activity; No Activity.

With `Cn1nnnc1C(/C=C/[C@@H]1C[C@@H](O)CC(=O)O1)=C(c1ccc(F)cc1)c1ccc(F)cc1`, the Ratio in experiment [1] turned out to be 76; in experiment [2], 1; in experiment [3], 149; in experiment [4] it was 86.

As for `Cn1nnnc1C(/C=C/[C@H]1C[C@H](O)CC(=O)O1)=C(c1ccc(F)cc1)c1ccc(F)cc1`, in experiment [5], the IC50 entry is “Not Active”.

For `CC[C@H](C)C(=O)O[C@H]1C[C@@H](C)C=C2C=C[C@H](C)[C@H](CC[C@@H]3C[C@@H](O)CC(=O)O3)[C@H]21` [LOVASTATIN], the Ratio worked out at 1 in experiment [1], 1 in experiment [2], 1.2 in experiment [3] and 1.3 in experiment [4].
